Reference: US20180325893A1, “SUBACUTE ADMINISTRATION OF NMDA MODULATORS ALONE OR IN COMBINATION” (Northwestern University, priority 2015, published 2018)
“Also recorded” adds a separate entry of the source. Peptide text beside a SMILES is read from it.

Tests used:
Format in all cases: in vivo
[1] = system: male C57BL/6J mice; experiment: NOR in subchronic PCP-treated mice (Example 2); settings: for preference for novel versus familiar object, retention trial: Example 2
Procedure: (§1) Three cohorts of male C57BL/6J mice (2½-3 month old, Jackson, Mass., USA), N=40, 45, and 48 were used in Examples 1, 2, 3 respectively. Mice were group housed (five/cage) in a controlled environment held at 21±2° C. and 50±15% relative humidity with a 14:10 h light-dark period (lights on: 05:00 am). All experiments were conducted during the light phase. Food and water were available ad libitum. The mice were habituated to the colony upon arrival for a week, during which time, they were not handled. All experiments were conducted in accordance with Institutional Animal Care and Use Committee of Northwestern University, Chicago.
(§2) Rapastinel was obtained from SAI Life Sciences (India). PCP was a generous gift from National Institute of Drug Abuse. Ketamine was purchased from Sigma Aldrich (St. Louis, Mo.). Lurasidone was provided by Sumitomo Dainippon Pharma Co., Ltd. (Osaka, Japan). Rapastinel, PCP, and ketamine were dissolved in 0.9% sterile saline (Sal). PCP and ketamine were administered intraperitoneally (ip), at a volume of 10 mL/kg body weight. Rapastinel was given intravenously (iv). The dose of rapastinel (1.0 mg/kg) was chosen because it produced optimal enhancement in learning in both young adult and aged rats and in a trace eye blink conditioning task in rabbits. […] The dose for lurasidone (0.1 mg/kg) was chosen based on prior NOR studies in C57BL/6J mice which determined the effective dose of lurasidone to restore NOR in subchronic PCP-treated mice.
(§3) For acute drug treatments, rapastinel (1.0 mg/kg, iv), lurasidone (0.1 mg/kg, i.p.) or ketamine (30 mg/kg, ip) were administered 30 min prior to the acquisition trial of the NOR task (described below) to the subchronic ketamine or subchronic PCP-treated animals. For subchronic drug treatments, 7-10 mice/cohort were randomly assigned to Sal, PCP, or ketamine. The Sal-treated mice received 0.9% NaCl; the drug treatment groups received either PCP (10 mg/kg; ip), or ketamine (30 mg/kg; ip) twice daily for 7 days. This was followed by a 7 day washout period during which time, mice were left undisturbed in the home cage until initiation of habituation (see below).
NOR testing in mice was slightly modified from Hashimoto et al (Hashimoto K.; Fujita Y.; Shimizu E.; Iyo M. European Journal of Pharmacology 2005, 519:114-7). […] Similar observations were made when large objects were used. […] It was observed that C57BL/6J mice explored less when the duration of trials were 3 or 5. […] The NOR apparatus consisted of an open box made of Plexiglas (52 cm L; 52 cm W; 31 cm H) with white walls and a solid floor. The box was positioned approximately 30 cm above the floor, centered on a table such that the overhead lights could not provide a spatial cue. One day after the 7 day washout from subchronic drug treatment or Sal, mice were habituated to the empty NOR arena, as a group, for one hour, on each of three days prior to the acquisition trial. During the acquisition trial, the mice were allowed to explore two identical objects (e.g. A1 and A2) for 10 min. This was followed by a 24-hour inter-trial interval, after which the mice were returned to the home cage. […] Behavior was recorded on video for blind scoring of object exploration. […] The discrimination index (DI) [(time spent exploring the novel object—time spent exploring the familiar object)/total exploration time] was then calculated for retention trials. […]

[2] = system: male C57BL/6J mice; experiment: Novel object recognition (NOR), acute drug treatment / acute ketamine-induced deficit (Example 1); settings: for discrimination index (DI) / NOR deficit: Example 1, FIG. 1; for preference for novel versus familiar object (exploration time), retention trial: Example 1
Procedure: as §1, §2, §3
(§4) NOR testing in mice was slightly modified from Hashimoto et al (Hashimoto K.; Fujita Y.; Shimizu E.; Iyo M. European Journal of Pharmacology 2005, 519:114-7). […] Similar observations were made when large objects were used. […] It was observed that C57BL/6J mice explored less when the duration of trials were 3 or 5. […] The NOR apparatus consisted of an open box made of Plexiglas (52 cm L; 52 cm W; 31 cm H) with white walls and a solid floor. The box was positioned approximately 30 cm above the floor, centered on a table such that the overhead lights could not provide a spatial cue. One day after the 7 day washout from subchronic drug treatment or Sal, mice were habituated to the empty NOR arena, as a group, for one hour, on each of three days prior to the acquisition trial. During the acquisition trial, the mice were allowed to explore two identical objects (e.g. A1 and A2) for 10 min. This was followed by a 24-hour inter-trial interval, after which the mice were returned to the home cage. During the retention trial, the mice were allowed to explore the familiar object (A) from the acquisition trial and a novel object (e.g. B). The location of the novel object in the retention trial was randomly assigned for each mouse tested using a pseudorandom schedule. […] Also, to avoid bias or olfactory trails, objects were used in triplicates, i.e. that the same object that was used in the acquisition trial was not presented in retention trial. Behavior was recorded on video for blind scoring of object exploration. Object exploration was defined as an animal licking, sniffing, or touching the object with the forepaws while sniffing. […] The discrimination index (DI) [(time spent exploring the novel object—time spent exploring the familiar object)/total exploration time] was then calculated for retention trials. […]

[3] = system: male C57BL/6J mice; experiment: NOR in subchronic ketamine-treated mice (Examples 2 and 3)
Procedure: as §1, §2, §3, §4

[4] = acute drug plus sal, rapastinel 1.0 mg/kg, ketamine 30 mg/kg
[5] = acute drug plus sal, 30 min prior to acquisition trial, rapastinel 1.0 mg/kg iv, ketamine 30 mg/kg ip

Structure (SMILES) | discrimination index (DI) ([1]; Example 2, FIG. 2, subchronic PCP alone, compared to sal plus sal) | preference for novel versus familiar object, retention trial ([1]; subchronic PCP 10 mg/kg ip twice daily 7 days, 7 day washout) | discrimination index (DI) / NOR deficit [2, 4] | preference for novel versus familiar object (exploration time), retention trial [2, 5] | discrimination index (DI) ([3]; Example 2, FIG. 2, subchronic ketamine alone, compared to sal plus sal) | preference for novel versus familiar object, retention trial ([3]; Example 2, subchronic ketamine 30 mg/kg ip twice daily 7 days, 7 day washout) | discrimination index (DI) ([3]; Example 3, FIG. 3, subchronic ketamine plus sal, compared to saline controls) | preference for novel versus familiar object, retention trial ([3]; Example 3, subchronic ketamine alone) | discrimination index (DI) / NOR deficit ([2]; rapastinel 1.0 mg/kg plus acute ketamine 30 mg/kg) | discrimination index (DI) / NOR deficit ([2]; rapastinel 1.0 mg/kg plus acute ketamine 30 mg/kg, listed as Rap) | preference for novel versus familiar object (exploration time), retention trial ([2]; rapastinel 1.0 mg/kg prior to acute ketamine 30 mg/kg) | discrimination index (DI) / NOR deficit ([3]; Example 2, FIG. 2, acute rapastinel 1.0 mg/kg in subchronic ketamine-treated mice) | discrimination index (DI) / NOR deficit ([3]; Example 2, FIG. 2, acute rapastinel 1.0 mg/kg in subchronic ketamine-treated mice, listed as rap) | preference for novel versus familiar object, retention trial ([3]; Example 2, acute rapastinel 1.0 mg/kg in subchronic ketamine-treated mice) | discrimination index (DI) / NOR deficit ([3]; Example 3, FIG. 3, subchronic ketamine-treated mice given sub-effective dose rapastinel 0.3 mg/kg and/or sub-effective dose lurasidone 0.1 mg/kg) | preference for novel versus familiar object, retention trial ([3]; Example 3, subchronic ketamine-treated mice given sub-effective dose rapastinel 0.3 mg/kg and/or sub-effective dose lurasidone 0.1 mg/kg) | discrimination index (DI) / NOR deficit ([1]; Example 2, FIG. 2, acute rapastinel 1.0 mg/kg in subchronic PCP-treated mice) | discrimination index (DI) / NOR deficit ([1]; Example 2, FIG. 2, acute rapastinel 1.0 mg/kg in subchronic PCP-treated mice, listed as rap) | preference for novel versus familiar object, retention trial ([1]; acute rapastinel 1.0 mg/kg in subchronic PCP-treated mice)
c1ccc(C2(N3CCCCC3)CCCCC2)cc1 [PCP, reference compound] | significantly reduced | abolished |  |  |  |  |  |  |  |  |  |  |  |  |  |  |  |  | 
CNC1(c2ccccc2Cl)CCCCC1=O (stereo not drawn) [ketamine, Ketamine, reference compound] |  |  | induced a significant NOR deficit; also recorded: significantly reduced | abolished | significantly reduced | abolished | significant reductions in the DI | abolished |  |  |  |  |  |  |  |  |  |  | 
CC(O)C(N)C(=O)N1CCCC1C(=O)N1CCCC1C(=O)NC(C(N)=O)C(C)O (stereo not drawn) [rapastinel, Rapastinel] (H-TPPT-NH2; configuration not given here) |  |  | did not induce NOR deficit | showed a clear preference for the novel compared to the familiar object |  |  |  |  | significantly prevented the acute ketamine-induced decrease in DI | significantly prevented the ket-induced NOR deficit | showed clear preference for the novel compared to the familiar object | significantly increased | significantly reversed | explored the novel object significantly more compared to the familiar object | neither drug above at these doses was effective; also recorded: significant reductions in the DI | abolished | significantly increased | significantly reversed | explored the novel object significantly more compared to the familiar object
